In ChEMBL document CHEMBL3352398, “2-(2-Bromophenyl)-formononetin and 2-heptyl-formononetin are PPARγ partial agonists and reduce lipid accumulation in 3T3-L1 adipocytes” (Bioorg Med Chem, 2014):
Active and inactive are the calls of the source. No cut-off for these calls is given here.

Experiments:
3T3-L1 [1] = experiment: Reduction of adipogenesis in mouse 3T3L1 cells assessed as decrease in lipid accumulation measured on day 8 by oil red o assay; format: functional, cell-based
[2] = Cytotoxicity against mouse 3T3L1 cells assessed as effect on lactate dehydrogenase release at 5 to 50 uM measured on day 8; format: cell-based; conditions: 3t3-l1, 50 µM
3T3-L1 [3] = experiment: Effect on adipogenesis in mouse 3T3L1 cells assessed as reduction in Pparg gene expression at 5 to 50 uM after 8 days by real time quantitative PCR analysis relative to vehicle-treated control; format: functional, cell-based
3T3-L1 [4] = experiment: Effect on adipogenesis in mouse 3T3L1 cells assessed as reduction in Cebpa gene expression at 5 to 50 uM after 8 days by real time quantitative PCR analysis relative to vehicle-treated control; format: functional, cell-based
3T3-L1 [5] = experiment: Effect on adipogenesis in mouse 3T3L1 cells assessed as increase in Srebf1 gene expression at 5 to 50 uM after 8 days by real time quantitative PCR analysis relative to vehicle-treated control; format: functional, cell-based
3T3-L1 [6] = experiment: Effect on adipogenesis in mouse 3T3L1 cells assessed as reduction in Fabp4 gene expression at 5 to 50 uM after 8 days by real time quantitative PCR analysis relative to vehicle-treated control; format: functional, cell-based
3T3-L1 [7] = experiment: Effect on adipogenesis in mouse 3T3L1 cells assessed as reduction in Adipoq gene expression at 5 to 50 uM after 8 days by real time quantitative PCR analysis relative to vehicle-treated control; format: functional, cell-based
3T3-L1 [8] = experiment: Effect on adipogenesis in mouse 3T3L1 cells assessed as reduction in Cebpa gene expression at 5 to 50 uM after 4 days by real time quantitative PCR analysis relative to vehicle-treated control; format: functional, cell-based
3T3-L1 [9] = experiment: Effect on adipogenesis in mouse 3T3L1 cells assessed as reduction in Fabp4 gene expression at 5 to 50 uM after 4 days by real time quantitative PCR analysis relative to vehicle-treated control; format: functional, cell-based
3T3-L1 [10] = experiment: Effect on adipogenesis in mouse 3T3L1 cells in DI media assessed as increase in lipid accumulation at <25 uM after 8 days by fluorescence-based AdipoRed assay; format: functional, cell-based
3T3-L1 [11] = experiment: Reduction in triglyceride release in mouse 3T3L1 cells at 50 uM after 48 hrs by oil red o assay; format: functional, cell-based
[12] = Cytotoxicity against mouse 3T3L1 cells assessed as LDH release at 50 uM after 48 hrs; format: cell-based; conditions: 3t3-l1, 48 h
3T3-L1 [13] = experiment: Induction of lipolysis in mouse 3T3L1 cells assessed as increase in glycerol level at 50 uM after 48 hrs by UV-Vis spectrophotometry; format: functional
3T3-L1 [14] = experiment: Reduction in lipogenesis in mouse 3T3L1 cells assessed as down regulation of Acaca gene exression by real time-qPCR analysis; format: functional, cell-based
3T3-L1 [15] = experiment: Reduction in lipogenesis in mouse 3T3L1 cells assessed as down regulation of Fasn gene exression by real time-qPCR analysis; format: functional, cell-based
3T3-L1 [16] = experiment: Induction of lipolysis in mouse 3T3L1 cells assessed as up-regulation of Acox1 gene exression by real time-qPCR analysis; format: functional, cell-based
[17] = molecular target: T1, Peroxisome proliferator-activated receptor gamma (Homo sapiens) (UniProt P37231); experiment: Competitive binding to human GST-tagged PPAR-gamma at <=100 uM by TR-FRET assay
T1 sequence (whole entry): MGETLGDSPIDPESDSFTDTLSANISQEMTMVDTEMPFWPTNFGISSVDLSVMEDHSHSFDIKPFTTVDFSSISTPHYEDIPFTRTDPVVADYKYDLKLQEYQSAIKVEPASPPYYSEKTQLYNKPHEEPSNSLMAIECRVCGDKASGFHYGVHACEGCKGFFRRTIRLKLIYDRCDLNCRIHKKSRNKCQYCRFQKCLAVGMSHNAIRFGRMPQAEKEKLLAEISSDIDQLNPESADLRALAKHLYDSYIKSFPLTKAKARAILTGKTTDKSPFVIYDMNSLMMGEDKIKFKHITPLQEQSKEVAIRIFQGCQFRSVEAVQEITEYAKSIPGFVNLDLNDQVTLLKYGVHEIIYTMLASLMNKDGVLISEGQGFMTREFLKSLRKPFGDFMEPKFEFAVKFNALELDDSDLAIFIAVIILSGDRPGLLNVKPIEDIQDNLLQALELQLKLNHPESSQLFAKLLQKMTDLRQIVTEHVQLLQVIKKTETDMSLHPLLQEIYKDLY

[18] = molecular target: T2, Peroxisome proliferator-activated receptor gamma (Mus musculus) (UniProt P37238); experiment: Agonist activity at PPAR-gamma in mouse embryo fibroblast at 5 to 50 uM by transactivation assay relative to rosiglitazone
T2 sequence (whole entry): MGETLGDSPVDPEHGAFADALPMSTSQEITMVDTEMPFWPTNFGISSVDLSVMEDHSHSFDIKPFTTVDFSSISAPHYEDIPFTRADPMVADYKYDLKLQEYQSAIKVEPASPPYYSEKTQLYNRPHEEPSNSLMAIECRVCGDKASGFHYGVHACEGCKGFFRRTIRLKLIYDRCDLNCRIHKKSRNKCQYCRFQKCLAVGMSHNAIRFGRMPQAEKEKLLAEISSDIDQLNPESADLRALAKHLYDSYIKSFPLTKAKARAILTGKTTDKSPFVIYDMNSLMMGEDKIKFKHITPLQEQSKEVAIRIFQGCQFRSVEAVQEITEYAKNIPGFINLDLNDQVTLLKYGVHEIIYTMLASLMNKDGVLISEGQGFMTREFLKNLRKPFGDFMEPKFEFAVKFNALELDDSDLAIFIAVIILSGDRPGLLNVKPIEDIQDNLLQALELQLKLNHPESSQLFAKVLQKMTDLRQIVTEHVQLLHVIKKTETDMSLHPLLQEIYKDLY

[19] = molecular target: T2, Peroxisome proliferator-activated receptor gamma (Mus musculus); experiment: Agonist activity at PPAR-gamma in mouse embryo fibroblast by transactivation assay relative to rosiglitazone
[20] = molecular target: T3, Peroxisome proliferator-activated receptor delta (Homo sapiens) (UniProt Q03181); experiment: Agonist activity at PPAR-delta (unknown origin) by transactivation assay
T3 sequence (whole entry): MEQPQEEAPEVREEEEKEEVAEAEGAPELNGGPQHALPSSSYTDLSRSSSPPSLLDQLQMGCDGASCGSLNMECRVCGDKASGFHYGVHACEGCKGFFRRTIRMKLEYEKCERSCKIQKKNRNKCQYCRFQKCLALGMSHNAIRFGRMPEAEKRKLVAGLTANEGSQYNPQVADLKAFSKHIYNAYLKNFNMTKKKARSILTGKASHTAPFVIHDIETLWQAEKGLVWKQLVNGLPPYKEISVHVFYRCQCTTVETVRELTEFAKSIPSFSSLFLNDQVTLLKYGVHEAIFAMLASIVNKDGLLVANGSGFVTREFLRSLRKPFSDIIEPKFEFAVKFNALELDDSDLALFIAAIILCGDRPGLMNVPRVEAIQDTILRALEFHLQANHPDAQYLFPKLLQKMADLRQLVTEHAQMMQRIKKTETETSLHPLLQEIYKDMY

3T3-L1 [21] = experiment: Activation of AMPK in mouse 3T3L1 cells assessed as AMPK phosphorylation at 50 uM after 5 to 48 hrs by Western blotting analysis; format: cell-based
[22] = Effect on adipogenesis in mature mouse 3T3L1 cells assessed as upregulation of Sirt1 gene expression; format: functional, cell-based; conditions: 3T3-L1

SMILES: CCCCCCCc1oc2cc(O)ccc2c(=O)c1-c1ccc(OC)cc1
- Activity (3T3-L1 [1]): Dose-dependent effect
- Activity [2]: Non-toxic
- Activity (3T3-L1 [3]): Dose-dependent effect
- Activity (3T3-L1 [4]): Dose-dependent effect
- Activity (3T3-L1 [5]): Dose-dependent effect
- Activity (3T3-L1 [6]): inactive
- Activity (3T3-L1 [7]): Dose-dependent effect
- Activity (3T3-L1 [8]): Dose-dependent effect
- Activity (3T3-L1 [9]): inactive
- Activity (3T3-L1 [10]): Active
- Activity (3T3-L1 [11]): Active
- Activity [12]: Toxic
- fold change (FC) (3T3-L1 [13]): 2
- Activity (3T3-L1 [14]): Active
- Activity (3T3-L1 [15]): Active
- Activity (3T3-L1 [16]): Active
- Activity [17]: Active
- Activity [18]: 33%
- Activity [19]: Dose-dependent effect
- Activity [20]: inactive
- Activity (3T3-L1 [21]): inactive
- Activity [22]: inactive
